Biological target: CA IX (Homo sapiens, UniProt Q16790)
Test: biochemical

O=c1ccc2ccc(O[C@@H]3O[C@H](CO)[C@@H](O)[C@H](O)[C@H]3O)cc2o1 [Skimmin, skimmin] was tested, and the IC50 was 548 ± 35.7 nM.
